Laboratory results from patent publication US6706663B2, “Herbicidal 3-heterocyclic substituted benzisothiazole and benzisoxazole compounds” (Wyeth, priority 2000, dated 2004).

Key:
[1] = system: IPOHE (Ipomoea hederacea); assay: Postemergence herbicidal evaluation; type: in vivo, (L.) Jacq.; settings: postemergence
Method in brief: (§1)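 Seedlings grown for about two weeks were sprayed postemergence and then kept under standard greenhouse care. Injury was rated visually 4–5 weeks after treatment on a 0–9 scale against untreated controls, and ratings from repeat tests were averaged.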

GALAP (Galium aparine) = assay: Postemergence herbicidal evaluation; type: in vivo; settings: postemergence
Method in brief: as §1

[2] = system: SAGPY (Sagittaria pygmaea); assay: Flooded paddy, preemergence weed control; type: in vivo, L.; settings: rated 3-4 weeks after treatment, 0-9 rating scale
Method in brief: (§2)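 Flooded silt loam pots, seeds in upper 0.5 cm, water held 1.5–3 cm deep; greenhouse; visual 0-9 score vs control.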

[3] = system: GLXMAW (Soybean, Williams); assay: Postemergence herbicidal evaluation; type: in vivo, Glycine max, (L.) Merr. cv Williams; settings: postemergence
Method in brief: as §1

ORYSAT (Rice, Tebonnet) [4] = assay: Preemergence herbicidal evaluation; type: in vivo, Oryza sativa, (L.) Tebonnet; settings: preemergence, rated 4-5 weeks after treatment
SETVI (Setaria viridis) [5] = assay: Postemergence herbicidal evaluation; type: in vivo, (L.) Beau; settings: postemergence
Method in brief: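 Postemergence foliar spray on two-week-old seedlings, dose equivalent to about 0.0040 to 1.000 kg/ha. Ratings use a 0-9 visual scale relative to control at four to five weeks.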

SETVI (Setaria viridis) [6] = assay: Preemergence herbicidal evaluation; type: in vivo, (L.) Beau; settings: preemergence, rated 4-5 weeks after treatment
Method in brief: (§3)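 Test compound is applied in aqueous acetone to cups just after seeding. Cups are watered and maintained on greenhouse benches. Each cup is scored 0–9 by eye relative to a control after four to five weeks.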

[7] = system: ECHCG (Echinochloa crus-galli); assay: Preemergence herbicidal evaluation; type: in vivo, (L.) Beau; settings: preemergence, rated 4-5 weeks after treatment
Method in brief: as §3

[8] = system: MOOVA (Monochoria vaginalis); assay: Flooded paddy, preemergence weed control; type: in vivo, Presl.; settings: rated 3-4 weeks after treatment, 0-9 rating scale
Method in brief: as §2

[9] = system: ECHCG (Echinochloa crus-galli); assay: Postemergence herbicidal evaluation; type: in vivo, (L.) Beau; settings: postemergence
Method in brief: as §1

ORYSAT (Rice, Tebonnet) [10] = assay: Flooded paddy, post-transplant rice tolerance; type: in vivo, Oryza sativa, (L.) Tebonnet; settings: flooded paddy, post-transplant rice, rated 3-4 weeks after treatment, 0-9 rating scale
Method in brief: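 Visual 0–9 injury rating against a control, covering stand, vigor, malformation, size, chlorosis and overall appearance. Treatment was post-transplant onto flooded containers (water 1.5–3 cm deep, silt loam) holding two ten-day-old cv. Tebonnet seedlings, maintained on greenhouse benches.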

ORYSAT (Rice, Tebonnet) [11] = assay: Postemergence herbicidal evaluation; type: in vivo, Oryza sativa, (L.) Tebonnet; settings: postemergence
Method in brief: as §1

[12] = system: IPOHE (Ipomoea hederacea); assay: Preemergence herbicidal evaluation; type: in vivo, (L.) Jacq.; settings: preemergence, rated 4-5 weeks after treatment
[13] = system: CHEAL (Chenopodium album); assay: Preemergence herbicidal evaluation; type: in vivo, L.; settings: preemergence, rated 4-5 weeks after treatment
Method in brief: as §3

[14] = system: CASOB (Cassia obtusifolia); assay: Preemergence herbicidal evaluation; type: in vivo, L.; settings: preemergence, rated 4-5 weeks after treatment
Method in brief: as §3

[15] = system: AMBEL (Ambrosia artemisifolia); assay: Preemergence herbicidal evaluation; type: in vivo, L.; settings: preemergence, rated 4-5 weeks after treatment
Method in brief: as §3

[16] = system: ABUTH (Abutilon theophrasti); assay: Postemergence herbicidal evaluation; type: in vivo, Medic.; settings: postemergence
Method in brief: as §1

CYPIR (Cyperus iria) = assay: Flooded paddy, preemergence weed control; type: in vivo; settings: rated 3-4 weeks after treatment, 0-9 rating scale
Method in brief: as §2

ZEAMX (Corn, Field) = assay: Postemergence herbicidal evaluation; type: in vivo, Zea mays, L.; settings: postemergence
Method in brief: as §1

[17] = system: ECHORC (Echinochloa oryzoides); assay: Flooded paddy, preemergence weed control; type: in vivo, Echinochloa oryzoides (Ard.) Fritsch.; settings: rated 3-4 weeks after treatment, 0-9 rating scale
Method in brief: as §2

Q: With Cn1c(C(F)(F)F)cc(=O)n(-c2ccc3snc(-c4sccc4CO)c3c2)c1=O [Compound 85, 3-[3-[3-(hydroxymethyl)-2-thienyl]-1,2-benzisothiazol-5-yl]-1-methyl-6-(trifluoromethyl)uracil] as the molecule, how does the IPOHE herbicidal rating ([1]; rate 0.0320 kg/ha) read?
A: 9.0

Q: And the IPOHE herbicidal rating ([1]; rate 0.0620 kg/ha)?
A: 9.0

Q: And the GALAP herbicidal rating (GALAP (Galium aparine); rate 0.0320 kg/ha)?
A: 4.0

Q: What about the GALAP herbicidal rating (GALAP (Galium aparine); rate 0.0620 kg/ha) of the same molecule?
A: 6.0

Q: What about the SAGPY herbicidal rating ([2]; rate 0.0080 kg/ha) of the same molecule?
A: 0.0

Q: And the SAGPY herbicidal rating ([2]; rate 0.0320 kg/ha)?
A: 1.5

Q: And the “herbicidal rating, SAGPY” value ([2]; rate 0.1250 kg/ha)?
A: 7.0

Q: What about the GLXMAW herbicidal rating ([3]; rate 0.0320 kg/ha) of the same molecule?
A: 3.5

Q: What about the GLXMAW herbicidal rating ([3]; rate 0.0620 kg/ha) of the same molecule?
A: 4.0

Q: And the “Preemergence herbicidal rating ORYSAT” value (ORYSAT (Rice, Tebonnet) [4]; rate 0.0620 kg/ha)?
A: 2.0

Q: What about the “Preemergence herbicidal rating ORYSAT” value (ORYSAT (Rice, Tebonnet) [4]; rate 0.1250 kg/ha) of the same molecule?
A: 6.0

Q: What about the “Preemergence herbicidal rating ORYSAT” value (ORYSAT (Rice, Tebonnet) [4]; rate 0.2500 kg/ha) of the same molecule?
A: 7.0

Q: And the SETVI herbicidal rating (SETVI (Setaria viridis) [5]; rate 0.0320 kg/ha)?
A: 5.0

Q: What about the SETVI herbicidal rating (SETVI (Setaria viridis) [5]; rate 0.0620 kg/ha) of the same molecule?
A: 9.0

Q: And the “Preemergence herbicidal rating SETVI” value (SETVI (Setaria viridis) [6]; rate 0.0620 kg/ha)?
A: 4.0

Q: What about the “Preemergence herbicidal rating SETVI” value (SETVI (Setaria viridis) [6]; rate 0.1250 kg/ha) of the same molecule?
A: 9.0

Q: And the “Preemergence herbicidal rating SETVI” value (SETVI (Setaria viridis) [6]; rate 0.2500 kg/ha)?
A: 7.0

Q: And the “Preemergence herbicidal rating ECHCG” value ([7]; rate 0.0620 kg/ha)?
A: 0.0

Q: And the “Preemergence herbicidal rating ECHCG” value ([7]; rate 0.1250 kg/ha)?
A: 3.0

Q: And the “Preemergence herbicidal rating ECHCG” value ([7]; rate 0.2500 kg/ha)?
A: 4.0

Q: And the MOOVA herbicidal rating ([8]; rate 0.0080 kg/ha)?
A: 9.0

Q: What about the MOOVA herbicidal rating ([8]; rate 0.0320 kg/ha) of the same molecule?
A: 7.0

Q: And the “herbicidal rating, MOOVA” value ([8]; rate 0.1250 kg/ha)?
A: 9.0

Q: What about the ECHCG herbicidal rating ([9]; rate 0.0320 kg/ha) of the same molecule?
A: 0.0

Q: And the ECHCG herbicidal rating ([9]; rate 0.0620 kg/ha)?
A: 2.0

Q: What about the “ORYSAT herbicidal rating (transplanted rice tolerance)” value (ORYSAT (Rice, Tebonnet) [10]; rate 0.0080 kg/ha) of the same molecule?
A: 0.0

Q: What about the “ORYSAT herbicidal rating (transplanted rice tolerance)” value (ORYSAT (Rice, Tebonnet) [10]; rate 0.0320 kg/ha) of the same molecule?
A: 1.5

Q: And the “herbicidal rating, ORYSAT (rice tolerance)” value (ORYSAT (Rice, Tebonnet) [10]; rate 0.1250 kg/ha)?
A: 5.5

Q: And the ORYSAT herbicidal rating (ORYSAT (Rice, Tebonnet) [11]; rate 0.0320 kg/ha)?
A: 3.5

Q: What about the ORYSAT herbicidal rating (ORYSAT (Rice, Tebonnet) [11]; rate 0.0620 kg/ha) of the same molecule?
A: 4.5

Q: What about the “Preemergence herbicidal rating IPOHE” value ([12]; rate 0.0620 kg/ha) of the same molecule?
A: 0.0

Q: What about the “Preemergence herbicidal rating IPOHE” value ([12]; rate 0.1250 kg/ha) of the same molecule?
A: 4.0

Q: What about the “Preemergence herbicidal rating IPOHE” value ([12]; rate 0.2500 kg/ha) of the same molecule?
A: 7.0

Q: What about the “Preemergence herbicidal rating CHEAL” value ([13]; rate 0.0620 kg/ha) of the same molecule?
A: 9.0

Q: And the “Preemergence herbicidal rating CHEAL” value ([13]; rate 0.1250 kg/ha)?
A: 9.0

Q: And the “Preemergence herbicidal rating CHEAL” value ([13]; rate 0.2500 kg/ha)?
A: 9.0

Q: What about the “Preemergence herbicidal rating CASOB” value ([14]; rate 0.0620 kg/ha) of the same molecule?
A: 0.0

Q: What about the “Preemergence herbicidal rating CASOB” value ([14]; rate 0.1250 kg/ha) of the same molecule?
A: 3.0

Q: What about the “Preemergence herbicidal rating CASOB” value ([14]; rate 0.2500 kg/ha) of the same molecule?
A: 5.0

Q: And the “Preemergence herbicidal rating AMBEL” value ([15]; rate 0.0620 kg/ha)?
A: 8.0

Q: And the “Preemergence herbicidal rating AMBEL” value ([15]; rate 0.1250 kg/ha)?
A: 9.0

Q: What about the “Preemergence herbicidal rating AMBEL” value ([15]; rate 0.2500 kg/ha) of the same molecule?
A: 9.0

Q: And the ABUTH herbicidal rating ([16]; rate 0.0320 kg/ha)?
A: 9.0

Q: What about the ABUTH herbicidal rating ([16]; rate 0.0620 kg/ha) of the same molecule?
A: 9.0

Q: And the CYPIR herbicidal rating (CYPIR (Cyperus iria); rate 0.0080 kg/ha)?
A: 0.0

Q: And the CYPIR herbicidal rating (CYPIR (Cyperus iria); rate 0.0320 kg/ha)?
A: 0.0

Q: And the “herbicidal rating, CYPIR” value (CYPIR (Cyperus iria); rate 0.1250 kg/ha)?
A: 6.0

Q: And the ZEAMX herbicidal rating (ZEAMX (Corn, Field); rate 0.0320 kg/ha)?
A: 4.5

Q: And the ZEAMX herbicidal rating (ZEAMX (Corn, Field); rate 0.0620 kg/ha)?
A: 5.0

Q: What about the ECHORC herbicidal rating ([17]; rate 0.0080 kg/ha) of the same molecule?
A: 0.0

Q: What about the ECHORC herbicidal rating ([17]; rate 0.0320 kg/ha) of the same molecule?
A: 5.0

Q: What about the “herbicidal rating, ECHORC” value ([17]; rate 0.1250 kg/ha) of the same molecule?
A: 8.0
